{"source": "paper PMC7138307", "about": "(PLoS ONE, 2020)", "key": {"FES [1]": {"biological_target": "T1, FES (Mus musculus, UniProt P16879)", "T1 construct": "homogenized brain lysates were labeled with Desthiobiotin-ADP-acyl phosphate probe; from tissue; host or cells: mouse cortical brain lysate", "T1 sequence (P16879 whole entry)": "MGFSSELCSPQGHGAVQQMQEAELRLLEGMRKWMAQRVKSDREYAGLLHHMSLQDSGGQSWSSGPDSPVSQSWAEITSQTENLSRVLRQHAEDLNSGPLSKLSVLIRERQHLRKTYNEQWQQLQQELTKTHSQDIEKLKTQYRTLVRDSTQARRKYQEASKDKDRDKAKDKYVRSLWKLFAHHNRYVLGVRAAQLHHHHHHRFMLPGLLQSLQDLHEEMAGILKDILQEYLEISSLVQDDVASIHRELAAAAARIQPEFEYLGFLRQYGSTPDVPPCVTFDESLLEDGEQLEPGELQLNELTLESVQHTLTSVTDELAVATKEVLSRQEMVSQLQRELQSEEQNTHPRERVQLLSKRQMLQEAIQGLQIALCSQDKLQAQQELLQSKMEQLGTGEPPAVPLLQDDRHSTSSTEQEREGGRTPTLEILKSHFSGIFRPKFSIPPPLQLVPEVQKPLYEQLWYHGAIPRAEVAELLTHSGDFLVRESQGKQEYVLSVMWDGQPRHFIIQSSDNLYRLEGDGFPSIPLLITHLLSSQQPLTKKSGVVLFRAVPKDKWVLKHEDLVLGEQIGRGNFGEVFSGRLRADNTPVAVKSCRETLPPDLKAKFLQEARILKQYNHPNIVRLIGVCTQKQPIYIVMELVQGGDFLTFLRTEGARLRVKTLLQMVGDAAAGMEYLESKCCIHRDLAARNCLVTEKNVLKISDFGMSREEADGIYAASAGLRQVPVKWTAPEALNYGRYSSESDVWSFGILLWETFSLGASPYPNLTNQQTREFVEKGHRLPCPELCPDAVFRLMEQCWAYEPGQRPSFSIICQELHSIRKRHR", "experiment": "Ex vivo KiNativ ATP/ADP probe competition in mouse cortical brain lysates", "type": "binding", "details": "LRADNTPVAVKSCR, Lys1"}, "FES [2]": {"biological_target": "T1, FES", "experiment": "In vivo target engagement, KiNativ ADP probe, mouse brain lysates", "details": "75 mg/kg I.P., one hour, peptide LRADNTPVAVKSCR, Lys1", "source_text": "(§1) To determine both in vivo target engagement and identify any potential off-target kinases inhibited by BIIB-TTBKi, we used a combination of desthiobiotin-ATP/ADP probes to covalently bind and biotinylate the conserved lysine residues at the active site of protein kinases (ActivX-KiNativ; Kyorin Pharmaceuticals, Ltd, Tokyo Japan). […] Lysates were trypsin digested and desthiobiotinylated peptides were captured on streptavidin beads. A list of 269 unique peptides were quantified through LC-MS/MS parallel reaction monitoring method. Target engagement was calculated as the percentage of peptide signal lost after addition of BIIB-TTBKi when compared to the vehicle treated lysate. Using the ADP probe, we were able to detect a total of 150 kinases in the mouse cortical brain lysates (Fig 5A).\n(§2) Mice were euthanized one hour following injection and homogenized brain lysates were labeled with Desthiobiotin-ADP-acyl phosphate probe (ADP probe). Desthiobiotinylated peptides were captured on streptavidin beads and peptides were quantified through LC-MS/MS parallel reaction monitoring method. Target engagement was calculated as the percentage of peptide signal lost when compared to the vehicle treated lysate. (A) Visualization of the off-target effects of BIIB-TTBKi at 75mg/kg. The ADP probe labelled around 150 unique kinases in mouse cortical brain lysates."}, "PIP4K2C [3]": {"biological_target": "T2, PIP4K2C (Mus musculus, UniProt Q91XU3)", "T2 construct": "from tissue; host or cells: mouse cortical brain lysate", "T2 sequence (Q91XU3 1-421)": "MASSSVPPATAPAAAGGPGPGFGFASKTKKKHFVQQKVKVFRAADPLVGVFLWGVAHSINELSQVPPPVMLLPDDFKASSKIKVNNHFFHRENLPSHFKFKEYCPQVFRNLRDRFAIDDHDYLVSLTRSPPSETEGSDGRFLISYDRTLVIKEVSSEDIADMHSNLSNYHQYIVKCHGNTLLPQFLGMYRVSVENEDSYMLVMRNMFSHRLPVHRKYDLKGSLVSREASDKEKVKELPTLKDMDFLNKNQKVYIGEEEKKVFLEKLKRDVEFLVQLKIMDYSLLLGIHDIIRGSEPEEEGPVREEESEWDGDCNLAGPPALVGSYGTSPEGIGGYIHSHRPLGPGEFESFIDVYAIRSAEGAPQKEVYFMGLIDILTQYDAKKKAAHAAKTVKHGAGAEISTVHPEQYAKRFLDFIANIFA", "experiment": "In vivo target engagement, KiNativ ADP probe, mouse brain lysates", "details": "75 mg/kg I.P., one hour, peptide TLVIKEVSSEDIADMHSNLSNYHQYIVK, ATP site", "source_text": "as §1, §2"}, "TTBK1, TTBK2": {"tested_on": "TTBK1, TTBK2", "experiment": "In vivo target engagement, KiNativ ADP probe, mouse brain lysates", "details": "75 mg/kg I.P., one hour, peptide DIKPSNFAMGR, Lys2", "source_text": "as §1, §2"}, "PIP5K3": {"biological_target": "T3, PIP5K3 (Mus musculus, UniProt Q9Z1T6)", "T3 construct": "homogenized brain lysates were labeled with Desthiobiotin-ADP-acyl phosphate probe; from tissue; host or cells: mouse cortical brain lysate", "T3 sequence (Q9Z1T6 whole entry)": "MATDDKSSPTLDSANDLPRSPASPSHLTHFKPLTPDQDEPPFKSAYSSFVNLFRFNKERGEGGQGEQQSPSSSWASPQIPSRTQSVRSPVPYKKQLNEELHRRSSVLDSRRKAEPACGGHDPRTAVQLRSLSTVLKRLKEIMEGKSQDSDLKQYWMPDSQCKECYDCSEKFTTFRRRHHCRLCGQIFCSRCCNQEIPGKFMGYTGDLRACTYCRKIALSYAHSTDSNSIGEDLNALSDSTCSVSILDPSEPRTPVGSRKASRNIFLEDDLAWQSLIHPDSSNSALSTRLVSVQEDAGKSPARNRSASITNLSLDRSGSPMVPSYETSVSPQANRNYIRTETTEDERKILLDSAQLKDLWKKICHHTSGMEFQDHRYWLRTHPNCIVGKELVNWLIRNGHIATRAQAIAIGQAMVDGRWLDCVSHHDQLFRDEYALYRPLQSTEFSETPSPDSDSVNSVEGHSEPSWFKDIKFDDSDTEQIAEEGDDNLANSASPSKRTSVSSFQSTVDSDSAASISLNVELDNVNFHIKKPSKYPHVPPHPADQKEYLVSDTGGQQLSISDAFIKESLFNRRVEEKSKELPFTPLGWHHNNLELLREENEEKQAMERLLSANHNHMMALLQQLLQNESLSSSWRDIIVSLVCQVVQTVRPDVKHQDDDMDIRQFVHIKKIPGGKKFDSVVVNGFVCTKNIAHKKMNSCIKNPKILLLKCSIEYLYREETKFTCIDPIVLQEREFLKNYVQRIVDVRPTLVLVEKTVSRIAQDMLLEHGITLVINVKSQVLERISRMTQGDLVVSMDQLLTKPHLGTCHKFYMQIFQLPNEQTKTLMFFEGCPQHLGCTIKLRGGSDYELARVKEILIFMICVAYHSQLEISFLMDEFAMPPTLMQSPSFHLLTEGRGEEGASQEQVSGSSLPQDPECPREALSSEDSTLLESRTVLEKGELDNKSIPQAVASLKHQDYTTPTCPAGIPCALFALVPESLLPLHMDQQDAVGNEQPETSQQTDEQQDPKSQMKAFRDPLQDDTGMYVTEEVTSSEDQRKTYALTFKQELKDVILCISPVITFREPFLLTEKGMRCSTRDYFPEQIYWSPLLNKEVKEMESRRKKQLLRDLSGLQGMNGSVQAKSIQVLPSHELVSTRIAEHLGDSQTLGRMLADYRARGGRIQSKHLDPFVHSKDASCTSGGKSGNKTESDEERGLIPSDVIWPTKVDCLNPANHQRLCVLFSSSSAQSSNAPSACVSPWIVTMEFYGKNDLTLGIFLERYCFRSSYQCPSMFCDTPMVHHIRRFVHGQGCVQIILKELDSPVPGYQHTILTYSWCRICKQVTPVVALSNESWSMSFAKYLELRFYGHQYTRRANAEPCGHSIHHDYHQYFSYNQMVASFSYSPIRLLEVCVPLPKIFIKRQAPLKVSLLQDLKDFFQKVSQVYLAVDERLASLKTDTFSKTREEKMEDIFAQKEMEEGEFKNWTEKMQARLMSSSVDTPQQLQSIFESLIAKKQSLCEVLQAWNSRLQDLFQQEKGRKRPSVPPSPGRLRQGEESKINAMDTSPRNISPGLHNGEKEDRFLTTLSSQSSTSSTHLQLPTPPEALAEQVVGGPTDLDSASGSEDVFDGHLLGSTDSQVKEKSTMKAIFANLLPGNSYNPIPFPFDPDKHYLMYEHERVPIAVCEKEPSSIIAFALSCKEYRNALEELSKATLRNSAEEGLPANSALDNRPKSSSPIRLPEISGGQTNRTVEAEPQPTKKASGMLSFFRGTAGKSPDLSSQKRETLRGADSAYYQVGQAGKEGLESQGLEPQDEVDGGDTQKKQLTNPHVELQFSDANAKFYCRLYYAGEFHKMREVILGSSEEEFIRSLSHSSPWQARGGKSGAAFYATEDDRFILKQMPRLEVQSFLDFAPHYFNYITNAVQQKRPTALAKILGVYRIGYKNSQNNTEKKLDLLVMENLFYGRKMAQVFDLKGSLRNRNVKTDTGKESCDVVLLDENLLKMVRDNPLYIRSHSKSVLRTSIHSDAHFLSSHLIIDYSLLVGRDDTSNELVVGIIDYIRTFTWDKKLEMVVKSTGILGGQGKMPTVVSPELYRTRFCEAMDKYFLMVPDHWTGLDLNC", "experiment": "In vivo target engagement, KiNativ ADP probe, mouse brain lysates", "details": "75 mg/kg I.P., one hour, peptide GGKSGAAFYATEDDRFILK, ATP site", "source_text": "as §1, §2"}, "PIP4K2C [4]": {"biological_target": "T2, PIP4K2C", "experiment": "Ex vivo KiNativ ATP/ADP probe competition in mouse cortical brain lysates", "type": "binding", "details": "labeling site ATP"}, "TAO1": {"biological_target": "T4, TAO1 (Mus musculus, UniProt Q5F2E8)", "T4 construct": "from tissue; host or cells: mouse cortical brain lysate", "T4 sequence (Q5F2E8 1-1001)": "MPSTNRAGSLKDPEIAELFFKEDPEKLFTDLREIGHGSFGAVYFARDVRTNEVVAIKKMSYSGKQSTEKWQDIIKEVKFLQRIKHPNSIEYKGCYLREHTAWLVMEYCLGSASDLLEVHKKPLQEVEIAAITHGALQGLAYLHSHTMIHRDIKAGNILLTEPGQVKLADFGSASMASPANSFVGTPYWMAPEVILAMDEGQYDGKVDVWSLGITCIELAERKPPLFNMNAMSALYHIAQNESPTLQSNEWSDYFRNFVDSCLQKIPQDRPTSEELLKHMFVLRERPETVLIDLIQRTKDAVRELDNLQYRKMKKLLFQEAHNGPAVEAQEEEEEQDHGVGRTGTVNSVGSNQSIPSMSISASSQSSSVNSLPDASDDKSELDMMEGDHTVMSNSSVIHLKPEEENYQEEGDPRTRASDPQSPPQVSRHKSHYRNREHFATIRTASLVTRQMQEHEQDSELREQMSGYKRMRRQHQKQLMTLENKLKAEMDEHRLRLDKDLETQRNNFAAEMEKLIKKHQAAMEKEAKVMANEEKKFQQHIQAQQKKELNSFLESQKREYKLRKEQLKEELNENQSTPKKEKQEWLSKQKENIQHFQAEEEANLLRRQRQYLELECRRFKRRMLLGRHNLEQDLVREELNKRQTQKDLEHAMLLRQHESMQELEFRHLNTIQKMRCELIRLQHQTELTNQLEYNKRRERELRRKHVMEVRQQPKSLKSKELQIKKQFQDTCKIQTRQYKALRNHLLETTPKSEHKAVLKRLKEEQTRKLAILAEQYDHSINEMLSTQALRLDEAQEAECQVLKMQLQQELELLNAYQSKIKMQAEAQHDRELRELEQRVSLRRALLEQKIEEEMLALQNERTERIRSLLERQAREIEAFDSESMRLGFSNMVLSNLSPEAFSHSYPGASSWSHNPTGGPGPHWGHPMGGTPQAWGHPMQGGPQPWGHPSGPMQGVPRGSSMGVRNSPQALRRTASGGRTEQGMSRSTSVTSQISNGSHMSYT", "experiment": "Ex vivo KiNativ ATP/ADP probe competition in mouse cortical brain lysates", "type": "binding", "details": "TNEVVAIKK; Lys1; ADP probe"}}, "data": [{"smiles": "CCC(C)(O)C#Cc1cc2c(ccn2-c2ccnc(N)n2)cn1", "note": "(stereo not shown) [BIIB-TTBK1i]", "values": [{"measurement": "Percent Inhibition at 1μM", "setting": "FES [1]; ADP probe", "value": 79.8, "unit": "%"}, {"measurement": "Percent Inhibition at 1μM", "setting": "FES [1]; ATP probe", "value": 61.2, "unit": "%"}, {"measurement": "Percent Inhibition with BIIB-TTBKi at 75mpk", "setting": "FES [2]", "value": 50.6, "unit": "%"}, {"measurement": "Percent Inhibition with BIIB-TTBKi at 75mpk", "setting": "PIP4K2C [3]", "value": 86.3, "unit": "%"}, {"measurement": "Percent Inhibition with BIIB-TTBKi at 75mpk", "setting": "TTBK1, TTBK2", "value": 82, "unit": "%"}, {"measurement": "Percent Inhibition with BIIB-TTBKi at 75mpk", "setting": "PIP5K3", "value": 90, "unit": "%"}, {"measurement": "Percent Inhibition at 1μM", "setting": "PIP4K2C [4]; TLVIKEVSSEDIADMHSNLSNYHQYIVK, ADP probe", "value": 88.8, "unit": "%"}, {"measurement": "Percent Inhibition at 1μM", "setting": "PIP4K2C [4]; TLVIKEVSSEDIADMHSNLSNYHQYIVK, ATP probe", "value": 76.5, "unit": "%"}, {"measurement": "Percent Inhibition at 1μM", "setting": "PIP4K2C [4]; VKELPTLKDMDFLNK, ATP probe", "value": 67.9, "unit": "%"}, {"measurement": "Percent Inhibition at 1μM", "setting": "TAO1", "value": 75.9, "unit": "%"}]}]}
